Data reported in US7378375B1, “Substituted pyridine herbicides” (Syngenta Crop Protection, Inc., priority 2000, dated 2008).

How the values were obtained:
[1] = test system: Monocotyledonous and dicotyledonous test plants; experiment: Herbicidal action before emergence of the plants (pre-emergence action), greenhouse pot test, 9-level rating after 4 weeks; type: in vivo; conditions: 250 g/ha, rated after 4 weeks, 9-level scale
How it was run: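 Compounds applied pre-emergence as a spray (500 l water/ha) of aqueous suspension or emulsion onto soil immediately after sowing mono- and dicot species in pots. Greenhouse-grown; damage rated after 4 weeks on a 9-level scale (1=complete damage, 9=no effect).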

[2] = test system: Monocotyledonous and dicotyledonous test plants; experiment: Post-emergence herbicidal action, greenhouse pot test, sprayed at the 2- to 3-leaf stage, 9-level rating after 2 to 3 weeks; type: in vivo; conditions: 250 g/ha, rated after 2 to 3 weeks, 9-level scale
How it was run: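 Plants grown in standard soil in pots; test substances sprayed at the 2- to 3-leaf stage at optimum dosage (500 l water/ha) as aqueous suspension or emulsion from formulated concentrates. Plants then kept in the greenhouse under optimum conditions; rated after 2 to 3 weeks on a 9-level scale (1=complete damage, 9=no effect).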

| Compound | Pre-emergence action rating, Abutilon [1] | Pre-emergence action rating, Amaranthus [1] | Pre-emergence action rating, Chenop. [1] | Pre-emergence action rating, Digitaria [1] | Pre-emergence action rating, Echino. [1] | Pre-emergence action rating, Panicum [1] | Post-emergence action rating, Abutilon [2] | Post-emergence action rating, Amaranth [2] | Post-emergence action rating, Chenop. [2] | Post-emergence action rating, Digitaria [2] | Post-emergence action rating, Echino. [2] | Post-emergence action rating, Ipopur. [2] | Post-emergence action rating, Panicum [2] | Post-emergence action rating, Xanth. [2] |
| --- | --- | --- | --- | --- | --- | --- | --- | --- | --- | --- | --- | --- | --- | --- |
| C#CCCOCc1nc(C(F)(F)F)ccc1C(=O)C1=C(O)C2CCC(C2)C1=O (stereo not drawn) [A836-B52] | 5 | 2 | 3 | 2 | 1 | 1 | 2 | 2 | 1 | 2 | 2 | 3 | 2 | 3 |
| CCN(CC)CC.O=C(C1=C(O)C2CCC(C2)C1=O)c1ccc(C(F)(F)F)nc1COC1CCCO1 (stereo not drawn) [A837-B52 (Et3NH+)] | 1 | 1 | 1 | 1 | 2 | 1 | 2 | 2 | 1 | 2 | 2 | 2 | 2 | 2 |
| CCC(OC)OCCOCc1nc(C(F)(F)F)ccc1C(=O)C1=C(O)C2CCC(C2)C1=O (stereo not drawn) [A838-B52] | 1 | 1 | 1 | 3 | 2 | 1 | 1 | 2 | 1 | 2 | 3 | 2 | 2 | 2 |
| CC(C)(C)C(=O)OCc1nc(C(F)(F)F)ccc1C(=O)C1=C(O)C2CCC(C2)C1=O (stereo not drawn) [A839-B52] | 1 | 1 | 1 | 3 | 2 | 1 | 2 | 2 | 1 | 2 | 2 | 2 | 2 | 2 |
| C=CCOCCOCc1nc(C(F)(F)F)ccc1C(=O)C1=C(O)C2CCC(C2)C1=O (stereo not drawn) [A840-B52] | 2 | 2 | 1 | 2 | 2 | 1 | 3 | 2 | 1 | 3 | 4 | 3 | 2 | 3 |
| CCCOCCOCc1nc(C(F)(F)F)ccc1C(=O)C1=C(O)C2CCC(C2)C1=O (stereo not drawn) [A841-B52] | 1 | 1 | 1 | 2 | 1 | 1 | 3 | 1 | 1 | 4 | 4 | 3 | 2 | 3 |
